Test results: US12690589B2, “Herbicidal compositions comprising pyroxasulfone” (BASF SE, priority 2024, dated 2026)

Experiments:
Experiment in all cases: Post-emergence application in field trials, herbicidal activity (damage scale 0 to 100%)
Format in all cases: in vivo
Zea mays (ZEAMX) = test system: Zea mays (ZEAMX)
Description: (§1) In the examples below, using the method of S. R. Colby (1967) “Calculating synergistic and antagonistic responses of herbicide combinations”, Weeds 15, p. 22ff., the value E, which is expected if the activity of the individual active compounds is only additive, was calculated:
(§2) [formula] • wherein • X=percent activity using active herbicide A at an application rate a; • Y=percent activity using active herbicide B (e.g. pyroxasulfone) at an application rate b; • E=expected activity (in %) by A+B at application rates a+b.
(§3) For 3-component mixtures the synergistic response was calculated as described in: Ferry, Nancy; Stanley, Bruce H.; and Armel, Gregory (2005). “DESIGN AND ANALYSIS OF BIOLOGICAL ASSAYS OF MIXTURES,” Conference on Applied Statistics in Agriculture. https://doi.org/10.4148/2475-7772.1133. According to this publication, the Colby calculation can be generalized to a third mixing partner, Z, employing the following formula: […]
(§4) If the value found experimentally is higher than the value E calculated according to Colby, a synergistic effect is present.
(§5) On field test sites, natural weed infestation or seeded weeds were treated post-emergence of the weeds.
(§6) In the field trials, the weeds were treated as indicated below.
(§7) In the following experiments, the herbicidal activity for the individual herbicidal compositions (solo and mixture applications) was assessed at the indicated days after treatment (DAT). The assessments for the damage on undesired weeds caused by the composition was carried out using a scale from 0 to 100%, compared to the untreated control plants. Here, 0 means no damage and 100 means complete destruction of the plants.
(§8) Herbicide A-1 (342 g/l) and pyroxasulfone (500 g/l) were, together with addition of 0.25 v/v % MSO (methylated seed oil) as adjuvant, formulated in 200 l/ha water as distribution medium and sprayed with commercial flat fan nozzles.
(§9) Herbicide A-1 (342 g/l), pyroxasulfone (500 g/l) and trifludimoxazin (500 g/l) were, together with addition of 0.25 v/v % MSO (methylated seed oil) as adjuvant, formulated in 200 l/ha water as distribution medium and sprayed with commercial flat fan nozzles.
(§10) Herbicide A-1 (342 g/I), pyroxasulfone (500 g/l) and glyphosate-isopropylammonium (356 g/l) were, together with addition of 0.25 v/v % MSO (methylated seed oil) as adjuvant, formulated in 200 l/ha water as distribution medium and sprayed with commercial flat fan nozzles.
(§11) Herbicide A-1 (342 g/l), pyroxasulfone (500 g/l) and glufosinate-P-ammonium (211 g/l) were, together with addition of 0.25 v/v % MSO (methylated seed oil) as adjuvant, formulated in 200 l/ha water as distribution medium and sprayed with commercial flat fan nozzles.
(§12) Herbicide A-1 (342 g/l), pyroxasulfone (500 g/l) and 2,4-D-choline (456 g/l) were, together with addition of 0.25 v/v % MSO (methylated seed oil) as adjuvant, formulated in 200 l/ha water as distribution medium and sprayed with commercial flat fan nozzles.

Hordeum vulgare (HORVW) = test system: Hordeum vulgare (HORVW)
Description: as §1, §2, §3, §4, §5, §6, §7, §8, §9, §10, §11, §12

[1] = test system: Setaria verticillata (SETVE)
Description: as §1, §2, §3, §4, §5, §6, §7, §8, §9, §10, §11, §12

`CCOC(=O)COc1ccccc1Oc1nc(-n2c(=O)cc(C(F)(F)F)n(C)c2=O)c(F)cc1Cl` [A-1, ethyl 2-[2-[[3-chloro-5-fluoro-6-[3-methyl-2,6-dioxo-4-(trifluoromethyl)pyrimidin-1-yl]-2-pyridyl]oxy]phenoxy]acetate] was tested, and the “% Herbicidal activity” value (Zea mays (ZEAMX); 21 DAT, stage 15-16, height 27-33 cm, g ai/ha A-1 18, B 70, C-12 252) was 30%, the “% Herbicidal activity” value (Zea mays (ZEAMX); 21 DAT, stage 15-16, height 27-33 cm, g ai/ha A-1 18, B 90, C-12 252) was 30% and the “% Herbicidal activity” value (Zea mays (ZEAMX); 42 DAT, stage 15-16, height 27-33 cm, g ai/ha A-1 12.5, B 70, C-12 252) was 15%. The “% Herbicidal activity” value (Zea mays (ZEAMX); 42 DAT, stage 15-16, height 27-33 cm, g ai/ha A-1 18, B 70, C-12 252) was 20%, the “% Herbicidal activity” value (Zea mays (ZEAMX); 42 DAT, stage 15-16, height 27-33 cm, g ai/ha A-1 18, B 90, C-12 252) was 20% and the “% Herbicidal activity” value (Zea mays (ZEAMX); Table 8.1, 7 DAT, stage 15-16, height 50-60 cm, g ai/ha A-1 18, B 70, C-12 1066) was 85%. For the same molecule, the “% Herbicidal activity” value (Zea mays (ZEAMX); Table 8.1, 7 DAT, stage 15-16, height 50-60 cm, g ai/ha A-1 18, B 90, C-12 1066) was 85%, the “% Herbicidal activity” value (Zea mays (ZEAMX); ZEAMX, growth stage 15-16, height 40-60 cm, A-1 18 g ai/ha, 7 DAT, Table 4.2) was 85% and the “% Herbicidal activity” value (Zea mays (ZEAMX); ZEAMX, growth stage 15-16, height 40-60 cm, A-1 18 g ai/ha, 21 DAT, Table 4.4) was 80%. The “% Herbicidal activity” value (Hordeum vulgare (HORVW); 7 DAT, stage 23-29, height 20-25 cm, g ai/ha A-1 12.5, B 70, C-12 252) was 70%, the “% Herbicidal activity” value (Hordeum vulgare (HORVW); 7 DAT, stage 23-29, height 20-25 cm, g ai/ha A-1 18, B 70, C-12 252) was 70% and the “% Herbicidal activity” value (Hordeum vulgare (HORVW); 7 DAT, stage 23-29, height 20-25 cm, g ai/ha A-1 18, B 90, C-12 252) was 70%. The “% Herbicidal activity” value (Hordeum vulgare (HORVW); 21 DAT, stage 23-29, height 20-25 cm, g ai/ha A-1 12.5, B 70, C-12 252) was 70%, the “% Herbicidal activity” value (Hordeum vulgare (HORVW); 21 DAT, stage 23-29, height 20-25 cm, g ai/ha A-1 18, B 70, C-12 252) was 70% and the “% Herbicidal activity” value (Hordeum vulgare (HORVW); 21 DAT, stage 23-29, height 20-25 cm, g ai/ha A-1 18, B 90, C-12 252) was 70%. For the same molecule, the “% Herbicidal activity” value (Hordeum vulgare (HORVW); 28 DAT, stage 23-29, height 20-25 cm, g ai/ha A-1 12.5, B 70, C-12 252) was 70%, the “% Herbicidal activity” value (Hordeum vulgare (HORVW); 28 DAT, stage 23-29, height 20-25 cm, g ai/ha A-1 18, B 70, C-12 252) was 70% and the “% Herbicidal activity” value (Hordeum vulgare (HORVW); 28 DAT, stage 23-29, height 20-25 cm, g ai/ha A-1 18, B 90, C-12 252) was 70%. The “% Herbicidal activity” value (Hordeum vulgare (HORVW); HORVW, growth stage 23-29, height 20-25 cm, A-1 12.5 g ai/ha, 7 DAT, Table 4.2) was 70%, the “% Herbicidal activity” value (Hordeum vulgare (HORVW); HORVW, growth stage 23-29, height 20-25 cm, A-1 12.5 g ai/ha, 21 DAT, Table 4.4) was 70% and the “% Herbicidal activity” value (Hordeum vulgare (HORVW); HORVW, growth stage 23-29, height 20-25 cm, A-1 12.5 g ai/ha, 28 DAT, Table 4.5) was 70%. The “% Herbicidal activity” value (Hordeum vulgare (HORVW); HORVW, growth stage 23-29, height 20-25 cm, A-1 18 g ai/ha, 7 DAT, Table 4.2) was 70%, the “% Herbicidal activity” value (Hordeum vulgare (HORVW); HORVW, growth stage 23-29, height 20-25 cm, A-1 18 g ai/ha, 21 DAT, Table 4.4) was 70% and the “% Herbicidal activity” value (Hordeum vulgare (HORVW); HORVW, growth stage 23-29, height 20-25 cm, A-1 18 g ai/ha, 28 DAT, Table 4.5) was 70%. The “% Herbicidal activity” value ([1]; 7 DAT, stage 21-23, height 8-16 cm, g ai/ha A-1 18, B 70, C-8 840) was 75%, the “% Herbicidal activity” value ([1]; 7 DAT, stage 21-23, height 8-16 cm, g ai/ha A-1 18, B 70, C-12 252) was 70% and the “% Herbicidal activity” value ([1]; 7 DAT, stage 21-23, height 8-16 cm, g ai/ha A-1 18, B 90, C-4 12.5) was 80%. For the same molecule, the “% Herbicidal activity” value ([1]; 7 DAT, stage 21-23, height 8-16 cm, g ai/ha A-1 18, B 90, C-8 840) was 75%, the “% Herbicidal activity” value ([1]; 7 DAT, stage 21-23, height 8-16 cm, g ai/ha A-1 18, B 90, C-12 252) was 70% and the “% Herbicidal activity” value ([1]; 21 DAT, stage 21-23, height 8-16 cm, g ai/ha A-1 18, B 90, C-12 252) was 65%. The “% Herbicidal activity” value ([1]; 42 DAT, stage 21-23, height 8-16 cm, g ai/ha A-1 12.5, B 70) was 50%, the “% Herbicidal activity” value ([1]; 42 DAT, stage 21-23, height 8-16 cm, g ai/ha A-1 12.5, B 70, C-12 252) was 50% and the “% Herbicidal activity” value ([1]; 42 DAT, stage 21-23, height 8-16 cm, g ai/ha A-1 18, B 70) was 70%. The “% Herbicidal activity” value ([1]; 42 DAT, stage 21-23, height 8-16 cm, g ai/ha A-1 18, B 90, C-12 252) was 50%, the “% Herbicidal activity” value ([1]; SETVE, growth stage 21-23, height 8-16 cm, A-1 12.5 g ai/ha, 7 DAT, Table 4.1) was 75% and the “% Herbicidal activity” value ([1]; SETVE, growth stage 21-23, height 8-16 cm, A-1 12.5 g ai/ha, 21 DAT, Table 4.3) was 70%. For the same molecule, the “% Herbicidal activity” value ([1]; SETVE, growth stage 21-23, height 8-16 cm, A-1 18 g ai/ha, 7 DAT, Table 4.1) was 75%, the “% Herbicidal activity” value ([1]; SETVE, growth stage 21-23, height 8-16 cm, A-1 18 g ai/ha, 21 DAT, Table 4.3) was 75% and the “% Herbicidal activity” value ([1]; Table 8.1, 7 DAT, stage 21-23, height 8-16 cm, g ai/ha A-1 18, B 70, C-12 1066) was 75%. For the same molecule, the “% Herbicidal activity” value ([1]; Table 8.2, 21 DAT, stage 21-23, height 8-16 cm, g ai/ha A-1 12.5, B 70, C-12 1066) was 70% and the “% Herbicidal activity” value ([1]; Table 8.4, 42 DAT, stage 21-23, height 8-16 cm, g ai/ha A-1 12.5, B 70, C-12 1066) was 60%.
